{"source": "patent US20250075155A1", "about": "“Use of Vanillyl Ethers to Modify Flavor of Distilled Spirits” (Firmenich Incorporated, priority 2021, published 2025)", "test": "Sensory testing of unaged grain neutral spirit with vs without VEE (qualitative, taste testers)", "description": "(§1) Sensory testing was performed comparing two samples of unaged grain neutral spirit (20% alcohol by volume), where one sample contained no vanillyl ether compounds and the other sample contained 4-(ethoxy methyl)-2-methoxyphenol (vanillyl ethyl ether or VEE) at a concentration of 5 ppm. The taste testers were asked to describe the differences between the two samples on a qualitative basis.\nas §1, with “4-(ethoxymethyl)-2-methoxyphenol” for “4-(ethoxy methyl)-2-methoxyphenol”, “25” for “5”", "key": {"[1]": {"details": "VEE 5 ppm in unaged grain neutral spirit (20% ABV), relative to control sample"}, "[2]": {"details": "VEE 25 ppm in unaged grain neutral spirit (20% ABV), relative to control sample"}}, "data": [{"smiles": "CCOCc1ccc(O)c(OC)c1", "note": "[VEE, 4-(ethoxymethyl)-2-methoxyphenol]", "values": [{"measurement": "Bitterness", "setting": "[1]", "result": "All taste testers identified the test sample as having a less bitter"}, {"measurement": "Overall Taste", "setting": "[1]", "result": "All taste testers identified the test sample as having a better overall"}, {"measurement": "Smoothness/Balance/Roundness", "setting": "[1]", "result": "All taste testers identified the test sample as having greater"}, {"measurement": "Smoothness/Balance/Roundness: taste characteristic of an aged spirit", "setting": "[1]", "result": "test sample as having a taste more characteristic of an aged spirit."}, {"measurement": "Sweetness", "setting": "[1]", "result": "sweeter taste."}, {"measurement": "Smell", "setting": "VEE 5 ppm in unaged grain neutral spirit (20% alcohol by volume), relative to control sample without vanillyl ether", "result": "sample (containing VEE) as having a slight rum-like smell relative"}, {"measurement": "Bitterness", "setting": "[2]", "result": "All taste testers identified the test sample as having a less bitter"}, {"measurement": "Overall Taste", "setting": "[2]", "result": "All taste testers identified the test sample as having a better"}, {"measurement": "Smoothness/Balance/Roundness", "setting": "[2]", "result": "All taste testers identified the test sample as having greater"}, {"measurement": "Sweetness", "setting": "[2]", "result": "sweeter taste."}, {"measurement": "Tingling/Heat", "setting": "[2]", "result": "increased tingling/hot perception very similar to ethanol profile"}, {"measurement": "Tingling/Heat: alcohol perception", "setting": "[2]", "result": "while significantly increasing the alcohol perception; taste like"}]}]}
